Data published in patent US20250144094A1 (Erasca, Inc., priority 2021, published 2025).

Biological target: Recombinant human ULK1 (1-649) (Homo sapiens (Human), UniProt O75385)
Assay: ULK1 ADP Glo kinase activity assay, new method (ULKtide peptide substrate)
Conditions: 25° C., 40 minutes, read-out: ULK1 biochemical IC50
Procedure, shortened: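 Kinase activity was read as ADP production (ADP-Glo, luminescence 30 min after detection reagent) following a 40-min, 25 °C reaction of Sf9-expressed GST-ULK1 (1-649) with ULKtide substrate and ATP. Compounds ran as 12-point series starting at 10 μM; four-parameter curve fitting versus DMSO wells gave IC50.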

Sequence of Recombinant human ULK1 (1-649) (O75385 1-649): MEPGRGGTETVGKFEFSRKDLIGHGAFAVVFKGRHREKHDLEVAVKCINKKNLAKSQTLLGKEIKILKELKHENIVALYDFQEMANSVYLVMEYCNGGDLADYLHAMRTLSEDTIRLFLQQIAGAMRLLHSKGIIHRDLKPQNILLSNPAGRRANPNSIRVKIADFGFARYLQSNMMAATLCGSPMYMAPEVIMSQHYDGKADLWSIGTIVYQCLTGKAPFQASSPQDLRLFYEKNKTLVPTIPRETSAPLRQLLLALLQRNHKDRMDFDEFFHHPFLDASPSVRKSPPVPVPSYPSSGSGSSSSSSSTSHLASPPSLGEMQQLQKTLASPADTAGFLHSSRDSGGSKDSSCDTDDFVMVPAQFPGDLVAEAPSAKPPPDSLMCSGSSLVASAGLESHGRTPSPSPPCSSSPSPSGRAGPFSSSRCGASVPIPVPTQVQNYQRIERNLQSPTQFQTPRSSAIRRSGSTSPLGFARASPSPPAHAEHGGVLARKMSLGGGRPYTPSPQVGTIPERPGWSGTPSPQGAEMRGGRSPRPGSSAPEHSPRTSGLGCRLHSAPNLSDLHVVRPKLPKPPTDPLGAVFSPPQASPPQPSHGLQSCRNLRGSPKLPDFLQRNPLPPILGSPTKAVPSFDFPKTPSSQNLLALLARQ

Structure (SMILES) | IC50 [nM]
CN1C2CC1CN(c1ccc(Nc3ncc(C(F)(F)F)c(-c4cc5c(s4)C(=O)N(C4COC4)CCS5(=O)=O)n3)c(C3CC3)c1)C2 [Example 349, 7-(2-((2-cyclopropyl-4-(6-methyl-3,6-diazabicyclo[3.1.1]heptan-3-yl)phenyl)amino)-5-(trifluoromethyl)pyrimidin-4-yl)-4-(oxetan-3-yl)-3,4-dihydrothieno[2,3-f][1,4]thiazepin-5(2H)-one 1,1-dioxide] | ≤ 5
CC(C)(F)CN1CCc2cc(Nc3ncc(C(F)(F)F)c(-c4cc5c(s4)C(=O)N(C4CC4)CCS5(=O)=O)n3)c(C3CC3)cc2C1 [Example 299, 4-cyclopropyl-7-(2-((7-cyclopropyl-2-(2-fluoro-2-methylpropyl)-1,2,3,4-tetrahydroisoquinolin-6-yl)amino)-5-(trifluoromethyl)pyrimidin-4-yl)-3,4-dihydrothieno[2,3-f][1,4]thiazepin-5(2H)-one 1,1-dioxide] | 10 to 50
Cc1nn(C2CCN(C)CC2)cc1Nc1ncc(C(F)(F)F)c(-c2cc3c(s2)C(=O)N(C)CCS3(=O)=O)n1 [Example 183, 4-methyl-7-(2-((3-methyl-1-(1-methylpiperidin-4-yl)-1H-pyrazol-4-yl)amino)-5-(trifluoromethyl)pyrimidin-4-yl)-3,4-dihydrothieno[2,3-f][1,4]thiazepin-5(2H)-one 1,1-dioxide] | > 100
CN1CCS(=O)(=O)c2cc(-c3nc(Nc4ccc(N5CCN(CC6CC6)CC5)cc4C4CC4)ncc3C(F)(F)F)sc2C1=O [Example 250, 7-(2-((2-cyclopropyl-4-(4-(cyclopropylmethyl)piperazin-1-yl)phenyl)amino)-5-(trifluoromethyl)pyrimidin-4-yl)-4-methyl-3,4-dihydrothieno[2,3-f][1,4]thiazepin-5(2H)-one 1,1-dioxide] | ≤ 5
C[C@@H]1CN(c2ccc(Nc3ncc(C(F)(F)F)c(-c4cc5c(s4)C(=O)N(C4COC4)CCS5(=O)=O)n3)c(C3CC3)c2)CCN1C [Example 316, (R)-7-(2-((2-cyclopropyl-4-(3,4-dimethylpiperazin-1-yl)phenyl)amino)-5-(trifluoromethyl)pyrimidin-4-yl)-4-(oxetan-3-yl)-3,4-dihydrothieno[2,3-f][1,4]thiazepin-5(2H)-one 1,1-dioxide] | ≤ 5
O=C1c2sc(-c3nc(Nc4cc5c(cc4C4CC4)CN(CC4CC4)CC5)ncc3C(F)(F)F)cc2S(=O)(=O)CCN1C1COC1 [Example 256, 7-(2-((7-cyclopropyl-2-(cyclopropylmethyl)-1,2,3,4-tetrahydroisoquinolin-6-yl)amino)-5-(trifluoromethyl)pyrimidin-4-yl)-4-(oxetan-3-yl)-3,4-dihydrothieno[2,3-f][1,4]thiazepin-5(2H)-one 1,1-dioxide] | ≤ 5
CCN1CCS(=O)(=O)c2cc(-c3nc(Nc4cc5c(cc4C4CC4)CNCC5)ncc3C(F)(F)F)sc2C1=O [Example 198, 7-(2-((7-cyclopropyl-1,2,3,4-tetrahydroisoquinolin-6-yl)amino)-5-(trifluoromethyl)pyrimidin-4-yl)-4-ethyl-3,4-dihydrothieno[2,3-f][1,4]thiazepin-5(2H)-one 1,1-dioxide] | ≤ 5
CC(C)(O)CN1CCc2cc(Nc3ncc(C(F)(F)F)c(-c4cc5c(s4)C(=O)N(C4CC4)CCS5(=O)=O)n3)c(C3CC3)cc2C1 [Example 287, 4-cyclopropyl-7-(2-((7-cyclopropyl-2-(2-hydroxy-2-methylpropyl)-1,2,3,4-tetrahydroisoquinolin-6-yl)amino)-5-(trifluoromethyl)pyrimidin-4-yl)-3,4-dihydrothieno[2,3-f][1,4]thiazepin-5(2H)-one 1,1-dioxide] | ≤ 5
CN1Cc2cc(Cl)c(Nc3ncc(C(F)(F)F)c(-c4cc5c(s4)C(=O)N(C)CCS5(=O)=O)n3)cc2C1 [Example 181, 7-(2-((6-chloro-2-methylisoindolin-5-yl)amino)-5-(trifluoromethyl)pyrimidin-4-yl)-4-methyl-3,4-dihydrothieno[2,3-f][1,4]thiazepin-5(2H)-one 1,1-dioxide] | ≤ 5
Cc1nn(C2CCNCC2)cc1Nc1ncc(C(F)(F)F)c(-c2cc3c(s2)C(=O)N(C)CCS3(=O)=O)n1 [Example 166, 4-methyl-7-(2-((3-methyl-1-(piperidin-4-yl)-1H-pyrazol-4-yl)amino)-5-(trifluoromethyl)pyrimidin-4-yl)-3,4-dihydrothieno[2,3-f][1,4]thiazepin-5(2H)-one 1,1-dioxide] | > 100

The next lines start with the values.

IC50 [nM] | Structure (SMILES)
≤ 5 | CN1CCc2cc(Nc3ncc(C(F)(F)F)c(-c4cc5c(s4)C(=O)NCCS5(=O)=O)n3)c(F)cc2C1 [Example 139, 7-(2-((7-fluoro-2-methyl-1,2,3,4-tetrahydroisoquinolin-6-yl)amino)-5-(trifluoromethyl)pyrimidin-4-yl)-3,4-dihydrothieno[2,3-f][1,4]thiazepin-5(2H)-one 1,1-dioxide]
≤ 5 | CCN1CCN(c2ccc(Nc3ncc(C(F)(F)F)c(-c4cc5c(s4)C(=O)N(C)CCS5(=O)=O)n3)c(Cl)c2)CC1 [Example 195, 7-(2-((2-chloro-4-(4-ethylpiperazin-1-yl)phenyl)amino)-5-(trifluoromethyl)pyrimidin-4-yl)-4-methyl-3,4-dihydrothieno[2,3-f][1,4]thiazepin-5(2H)-one 1,1-dioxide]
≤ 5 | CN1CCS(=O)(=O)c2cc(-c3nc(Nc4ccc(N5C[C@H]6C[C@@H]5CN6)cc4C4CC4)ncc3C(F)(F)F)sc2C1=O [Example 379, 7-(2-((4-((1R,4R)-2,5-diazabicyclo[2.2.1]heptan-2-yl)-2-cyclopropylphenyl)amino)-5-(trifluoromethyl)pyrimidin-4-yl)-4-methyl-3,4-dihydrothieno[2,3-f][1,4]thiazepin-5(2H)-one 1,1-dioxide]
≤ 5 | CC(C)N1CCc2cc(Nc3ncc(C(F)(F)F)c(-c4cc5c(s4)C(=O)N(C4CC4)CCS5(=O)=O)n3)c(C3CC3)cc2C1 [Example 248, 4-cyclopropyl-7-(2-((7-cyclopropyl-2-isopropyl-1,2,3,4-tetrahydroisoquinolin-6-yl)amino)-5-(trifluoromethyl)pyrimidin-4-yl)-3,4-dihydrothieno[2,3-f][1,4]thiazepin-5(2H)-one 1,1-dioxide]
≤ 5 | CCc1cc(N2CCN[C@@H](C)C2)ccc1Nc1ncc(C(F)(F)F)c(-c2cc3c(s2)C(=O)N(C2CC2)CCS3(=O)=O)n1 [Example 353, (S)-4-cyclopropyl-7-(2-((2-ethyl-4-(3-methylpiperazin-1-yl)phenyl)amino)-5-(trifluoromethyl)pyrimidin-4-yl)-3,4-dihydrothieno[2,3-f][1,4]thiazepin-5(2H)-one 1,1-dioxide]
≤ 5 | O=C1c2sc(-c3nc(Nc4cc5c(cc4Cl)CNCC5)ncc3C(F)(F)F)cc2S(=O)(=O)CCN1C1CC1 [Example 155, 7-(2-((7-chloro-1,2,3,4-tetrahydroisoquinolin-6-yl)amino)-5-(trifluoromethyl)pyrimidin-4-yl)-4-cyclopropyl-3,4-dihydrothieno[2,3-f][1,4]thiazepin-5(2H)-one 1,1-dioxide]
≤ 5 | C[C@@H]1CN(c2cc(C3CC3)c(Nc3ncc(C(F)(F)F)c(-c4cc5c(s4)C(=O)N(C4COC4)CCS5(=O)=O)n3)cn2)CCN1 [Example 374, (R)-7-(2-((4-cyclopropyl-6-(3-methylpiperazin-1-yl)pyridin-3-yl)amino)-5-(trifluoromethyl)pyrimidin-4-yl)-4-(oxetan-3-yl)-3,4-dihydrothieno[2,3-f][1,4]thiazepin-5(2H)-one 1,1-dioxide]
≤ 5 | CN1CCS(=O)(=O)c2cc(-c3nc(Nc4cn(C5CCNCC5)nc4C4CC4)ncc3C(F)(F)F)sc2C1=O [Example 141, 7-(2-((3-cyclopropyl-1-(piperidin-4-yl)-1H-pyrazol-4-yl)amino)-5-(trifluoromethyl)pyrimidin-4-yl)-4-methyl-3,4-dihydrothieno[2,3-f][1,4]thiazepin-5(2H)-one 1,1-dioxide]
≤ 5 | CCc1cc2c(cc1Nc1ncc(C(F)(F)F)c(-c3cc4c(s3)C(=O)N(C)CCS4(=O)=O)n1)CCNC2 [Example 147, 7-(2-((7-ethyl-1,2,3,4-tetrahydroisoquinolin-6-yl)amino)-5-(trifluoromethyl)pyrimidin-4-yl)-4-methyl-3,4-dihydrothieno[2,3-f][1,4]thiazepin-5(2H)-one 1,1-dioxide]
≤ 5 | CN1CCS(=O)(=O)c2cc(-c3nc(Nc4ccc(N5CCN(CC6CC6)CC5)cc4Cl)ncc3C(F)(F)F)sc2C1=O [Example 206, 7-(2-((2-chloro-4-(4-(cyclopropylmethyl)piperazin-1-yl)phenyl)amino)-5-(trifluoromethyl)pyrimidin-4-yl)-4-methyl-3,4-dihydrothieno[2,3-f][1,4]thiazepin-5(2H)-one 1,1-dioxide]
≤ 5 | C[C@H]1CN(c2ccc(Nc3ncc(C(F)(F)F)c(-c4cc5c(s4)C(=O)N(C4CC4)CCS5(=O)=O)n3)c(C3CC3)c2)CCN1C [Example 332, (S)-4-cyclopropyl-7-(2-((2-cyclopropyl-4-(3,4-dimethylpiperazin-1-yl)phenyl)amino)-5-(trifluoromethyl)pyrimidin-4-yl)-3,4-dihydrothieno[2,3-f][1,4]thiazepin-5(2H)-one 1,1-dioxide]
≤ 5 | CC1(C)CC(CN2CCc3cc(Nc4ncc(C(F)(F)F)c(-c5cc6c(s5)C(=O)N(C5CC5)CCS6(=O)=O)n4)c(C4CC4)cc3C2)O1 (centres unmarked) [Example 297, 4-Cyclopropyl-7-(2-((7-cyclopropyl-2-((4,4-dimethyloxetan-2-yl)methyl)-1,2,3,4-tetrahydroisoquinolin-6-yl)amino)-5-(trifluoromethyl)pyrimidin-4-yl)-3,4-dihydrothieno[2,3-f][1,4]thiazepin-5(2H)-one 1,1-dioxide]
≤ 5 | C[C@@H]1CN(c2ccc(Nc3ncc(C(F)(F)F)c(-c4cc5c(s4)C(=O)N(C4CC4)CCS5(=O)=O)n3)c(C3CC3)c2)CCN1 [Example 308, (R)-4-cyclopropyl-7-(2-((2-cyclopropyl-4-(3-methylpiperazin-1-yl)phenyl)amino)-5-(trifluoromethyl)pyrimidin-4-yl)-3,4-dihydrothieno[2,3-f][1,4]thiazepin-5(2H)-one 1,1-dioxide]
